These results are taken from patent publication US20160157490A1, “COMPOSITIONS COMPRISING A GERMINANT AND AN ANTIMICROBIAL AGENT” (priority 2010, published 2016).

This experiment deals with C. difficile spores. The experiment is described as follows: Germination efficacy testing of germinant solution with antimicrobial and preservative (neutraliser, heat shock or ice). Format: cell-based. The conditions noted are these: for effect on the germinant solution / germination: antimicrobial added to germinant solution; for initiation of germination / sporicidal activity: without amino acids and taurocholate. How it is done: The solution was heated and mixed thoroughly to dissolve all of the components before filtration through a pore size of 0.2 μm for sterilization. (This solution is double the working strength as it is diluted 1:2 during the experiment).
The pH was adjusted to 7 and was autoclaved to sterilize.
For the control, 100 μL of sterilized distilled water was mixed with 100 μL of C. difficile spore suspension. Spore suspensions were also incubated with solutions containing benzalkonium chloride and Tris buffer (without amino acids or taurocholate), benzyl alcohol with Tris buffer (without amino acids and taurocholate) and a solution containing the five amino acids and taurocholate (with no antimicrobials). […] (miniMACS Anaerobic Workstation (Don Whitley Scientific Ltd)).

For the compound `O=C(O)CN(CCN(CC(=O)O)CC(=O)O)CC(=O)O` [EDTA], the “effect on the germinant solution / germination” value is “inhibit the germinant solution”.

As to `N=C(NCCCCCCNC(=N)NC(=N)Nc1ccc(Cl)cc1)NC(=N)Nc1ccc(Cl)cc1.O=C(O)[C@H](O)[C@@H](O)[C@H](O)[C@H](O)CO.O=C(O)[C@H](O)[C@@H](O)[C@H](O)[C@H](O)CO` [cholorohexidine], the “effect on the germinant solution / germination” value is “inhibit the germinant solution”.

In the case of benzalkonium chloride, the “effect on the germinant solution / germination” value is “do not affect germination”, the initiation of germination entry was “did not initiate germination” and the sporicidal activity entry was “not sporicidal”.

For `OCc1ccccc1` [benzyl alcohol], the “effect on the germinant solution / germination” value is reported as “do not affect germination”, the initiation of germination result is “did not initiate germination” and the sporicidal activity result was “not sporicidal”.
